A short description of this data set: solubility in water. The following applies: 25° C. It is filed as physicochemical. The text has this:
Licarbazepine is indicated to be suitable for the treatment of psychosomatic disturbances, epilepsy, trigeminal neuralgia and cerebral spasticity. […] The mechanisms by which the compounds of the invention exert their anticonvulsant effects are not completely understood, but their activity may be partly due to effects on ion flow across neuronal membranes. However, pharmacokinetics, absorption sites and mechanisms of action of the compounds of the invention are not understood in detail. Licarbazepine is slightly soluble in water (3.2 mg/ml at 25° C.). In view of this physical property, a parenteral formulation of licarbazepine can be prepared as described, e. g., in EP-1 033 988. Despite the merits of the known parenteral dosage form, there remains a need to establish an advantageous oral dosage form of the compounds of the invention. One of the problems that may occur using an oral dosage form is the fluctuation of blood levels of the compounds of the invention on repeated administration, which may be associated with side effects.

Converted amounts (≈) assume the structure as drawn.

As to `NC(=O)N1c2ccccc2CC(O)c2ccccc21` (racemic) [Licarbazepine, 10,11-dihydro-10-hydroxy-5H-dibenz[b,f]azepine-5-carboxamide], the concentration in solution (solubility) came to 3200 µg/mL (≈ 12.6 mM).

Source of the values: patent US20070190143A1, “Disintegrating tablets comprising licarb azepine” (priority 2004, published 2007).
